Several values for one entry are separate records, joined by “and”; a condition that tells them apart may be missing. Equal entries are not always repeated. Where two headings read alike, the source gives them in different places.
Assays:
[1] = Long-term freezer stability in dog plasma; format: physicochemical; conditions: approximately −70° C.
Procedure: For the remaining validation tests, a calibration curve and triplicates QCs at the low, mid and high levels were analyzed with each sample set. The following samples were also analyzed either in conjunction with one of the precision and accuracy runs or in one of the additional validation runs: Samples from six lots of control dog plasma for specificity. Two concentration levels of unextracted QC-samples in triplicate (solvent standards) were analyzed for the evaluation of the recovery of sodium 2,2-dimethylbutyrate and DMV in dog plasma. Two levels of QC samples (Low QC and High QC in triplicate) were subjected to three freeze/thaw cycles at approximately −70° C. prior to extraction to evaluate freeze/thaw stability. Two levels of QC samples (Low QC and High QC in triplicate) were placed on the bench top for approximately 17 hours prior to extraction for the evaluation of the bench top stability. Triplicate low QC samples and triplicate high QC samples were stored for one month and three months in a freezer at approximately −70° C., and then extracted and analyzed to evaluate long term stability in dog plasma. Three aliquots of a dilution QC sample diluted 10-fold. QC-Low and QC-High plasma samples, which had been stored in a freezer at approximately −70° C. for one month and three months (99 days), were extracted in triplicate and analyzed. All CV % values and RE % values are within the acceptance criteria (≦15% and ±15% respectively). Therefore, sodium 2,2-dimethylbutyrate can be considered stable in dog plasma at approximately −70° C. for at least […].

[2] = format: physicochemical, human; conditions: for Long-term freezer stability, Mean concentration / Long-term freezer stability, RE % (mean vs nominal): human
Procedure: The following samples were also analyzed either in conjunction with one of the precision and accuracy runs or in one of the additional validation runs. Samples from six lots of control human plasma for specificity. Samples from six lots of control human plasma fortified with internal standard for specificity. Two concentration levels of unextracted QC-samples in triplicate (solvent standards) were analyzed for the evaluation of the recovery of sodium 2,2-dimethylbutyrate and DMV in human plasma. Two levels of QC samples (Low QC and High QC in triplicate) were subjected to three freeze/thaw cycles at approximately −70° C. prior to extraction to evaluate freeze/thaw stability. Two levels of QC samples (Low QC and High QC in triplicate) were placed on the bench top for approximately 17 hours prior to extraction for the evaluation of the bench top stability. Triplicate low QC samples and triplicate high QC samples were stored for one month and three months in a freezer at approximately −70° C., and then extracted and analyzed to evaluate long term stability in human plasma. Two levels of extracted QC samples (Low QC and High QC) were re-analyzed after approximately 71 hours in the autosampler at room temperature to evaluate the extract autosampler stability. Two levels of extracted QC samples (Low QC and High QC) were re-analyzed after approximately 8 hours in the freezer at approximately −20° C. to evaluate the extract freeze stability. Three aliquots of a dilution QC sample diluted 10-fold. Triplicate dilutions of the old stock solution (stored at approximately 4° C.) and new stock solutions prepared at intervals of two weeks and one month. Statistical calculations in the report tables were calculated from unrounded concentration values taken directly from the raw data. The concentration values were rounded for display purposes.
QC-Low and QC-High plasma samples, which had been stored in a freezer at approximately −70° C. for one month and three months, were extracted in triplicate and analyzed. The CV % values for the QC-Low and QC-High stability samples range from 4.0% to 11.1%. To calculate the RE %, the measured mean concentration was compared to the nominal concentration. The RE % values for the QC-Low and QC-High stability samples range from −13.7% to 4.1%. All CV % values and RE % values are within the acceptance criteria (≦15% and ±15% respectively).

[3] = 1 Month Interval, QC-High, nominal 40.0 μg/mL
[4] = 1 Month Interval, QC-Low, nominal 0.60 μg/mL
[5] = 3 Month Interval (99 days), QC-High, nominal 40.0 μg/mL
[6] = 3 Month Interval (99 days), QC-Low, nominal 0.60 μg/mL

CCC(C)(C)C(=O)[O-].[Na+] [Sodium 2,2-Dimethylbutyrate]
Time stable in freezer [1]: at least 99 days
Long-term freezer stability, Mean concentration [1, 3]: 36.1 µg/mL
Long-term freezer stability, RE % (mean vs nominal) [1, 3]: −9.9%
Long-term freezer stability, concentration found (replicate) [1, 3]: 36.4 µg/mL and 36.3 µg/mL and 35.5 µg/mL
Long-term freezer stability, Mean concentration [1, 4]: 0.575 µg/mL
Long-term freezer stability, RE % (mean vs nominal) [1, 4]: −4.2%
Long-term freezer stability, concentration found (replicate) [1, 4]: 0.586 µg/mL and 0.567 µg/mL and 0.572 µg/mL
Long-term freezer stability, Mean concentration [1, 5]: 35.0 µg/mL
Long-term freezer stability, RE % (mean vs nominal) [1, 5]: −12.5%
Long-term freezer stability, concentration found (replicate) [1, 5]: 36.1 µg/mL and 37.1 µg/mL and 31.7 µg/mL
Long-term freezer stability, Mean concentration [1, 6]: 0.61 µg/mL
Long-term freezer stability, RE % (mean vs nominal) [1, 6]: 1.0%
Long-term freezer stability, concentration found (replicate) [1, 6]: 0.629 µg/mL and 0.621 µg/mL and 0.568 µg/mL
Time stable in freezer ([2]; human plasma, approximately −70° C.): up to three months
Long-term freezer stability, Mean concentration ([2]; 1 month, 0.6 μg/mL): 0.552 µg/mL
Long-term freezer stability, RE % (mean vs nominal) ([2]; 1 month, 0.6 μg/mL): −7.9%
Long-term freezer stability, Mean concentration ([2]; 1 month, 40 μg/mL): 38.2 µg/mL
Long-term freezer stability, RE % (mean vs nominal) ([2]; 1 month, 40 μg/mL): −4.6%
Long-term freezer stability, Mean concentration ([2]; 3 months, 0.6 μg/mL): 0.624 µg/mL
Long-term freezer stability, RE % (mean vs nominal) ([2]; 3 months, 0.6 μg/mL): 4.1%
Long-term freezer stability, Mean concentration ([2]; 3 months, 40 μg/mL): 34.5 µg/mL
Long-term freezer stability, RE % (mean vs nominal) ([2]; 3 months, 40 μg/mL): −13.7%

From US20110033946A1, “DETECTION OF SHORT-CHAIN FATTY ACIDS IN BIOLOGICAL SAMPLES” (HEMAQUEST PHARMACEUTICALS, INC., priority 2009, published 2011)
